Eleven compounds from ChEMBL document CHEMBL5321277, “Discovery and Mechanism Study of SARS-CoV-2 3C-like Protease Inhibitors with a New Reactive Group” (J Med Chem, 2023) can be followed below.

As a reminder, the IC50 is the midpoint of a concentration-inhibition curve. A word on the Ki: it is the dissociation constant of the complex between target and ligand, obtained from inhibition or displacement. By EC50 is commonly meant the concentration needed to bring the measured effect to its halfway point. Higher therefore signals a less potent agent. As a reminder, the inhibition is the percentage by which the read-out fell short of the control.

The target in assay [1] is T1, Replicase polyprotein 1ab (Severe acute respiratory syndrome coronavirus 2, UniProt P0DTD1). Kind of assay: Inhibition of N-terminal His6-tagged recombinant full length SARS-CoV-2 3CLpro expressed in Escherichia coli BL21(DE3) using MCA-AVLQSGFR-Lys(Dnp)-Lys-NH2 as fluorogenic substrate preincubated with compound for 10 mins followed by substrate addition by FRET assay.

In the next assay the target is T2, Cathepsin G (Homo sapiens, UniProt P08311).
T2 sequence (P08311 whole entry): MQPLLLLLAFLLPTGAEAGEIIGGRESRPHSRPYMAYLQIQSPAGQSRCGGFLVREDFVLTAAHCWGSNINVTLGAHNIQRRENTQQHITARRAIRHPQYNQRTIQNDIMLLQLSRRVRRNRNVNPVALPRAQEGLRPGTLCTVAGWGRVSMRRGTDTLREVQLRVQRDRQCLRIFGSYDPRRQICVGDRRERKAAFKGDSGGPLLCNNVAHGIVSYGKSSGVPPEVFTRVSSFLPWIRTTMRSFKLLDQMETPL
Description: Inhibition of Cathepsin G (unknown origin) measured for 1 to 2 hrs by fluorescence based assay.

Assay [2] addresses Replicase polyprotein 1ab (Severe acute respiratory syndrome coronavirus 2) (UniProt P0DTD1). Kind of assay: Inhibition of N-terminal His6-tagged recombinant full length SARS-CoV-2 3CLpro expressed in Escherichia coli BL21(DE3) assessed as Kobs, ratio of Kinact/Ki using MCA-AVLQSGFR-Lys(Dnp)-Lys-NH2 as fluorogenic substrate incubated for 3 hrs by FRET assay.
Assay [3] addresses T3, Procathepsin L (Homo sapiens, UniProt P07711). Description: Inhibition of Cathepsin L (unknown origin) using Z-VVR-AMC as fluorogenic substrate preincubated for 10 mins followed by substrate addition and measured for 10 mins by fluorescence based assay.
Target sequence in this assay (P07711 whole entry): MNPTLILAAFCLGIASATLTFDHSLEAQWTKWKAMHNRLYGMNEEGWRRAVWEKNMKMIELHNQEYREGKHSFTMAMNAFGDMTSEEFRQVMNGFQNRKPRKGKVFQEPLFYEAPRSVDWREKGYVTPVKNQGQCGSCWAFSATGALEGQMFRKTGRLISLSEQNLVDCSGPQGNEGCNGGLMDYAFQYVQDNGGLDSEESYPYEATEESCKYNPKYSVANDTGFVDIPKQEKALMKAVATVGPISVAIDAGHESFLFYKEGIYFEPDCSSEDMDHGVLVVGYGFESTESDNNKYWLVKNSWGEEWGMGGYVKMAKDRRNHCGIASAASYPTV
The target of a further assay is T4, Caspase-6 (Homo sapiens, UniProt P55212).
T4 sequence (P55212 whole entry): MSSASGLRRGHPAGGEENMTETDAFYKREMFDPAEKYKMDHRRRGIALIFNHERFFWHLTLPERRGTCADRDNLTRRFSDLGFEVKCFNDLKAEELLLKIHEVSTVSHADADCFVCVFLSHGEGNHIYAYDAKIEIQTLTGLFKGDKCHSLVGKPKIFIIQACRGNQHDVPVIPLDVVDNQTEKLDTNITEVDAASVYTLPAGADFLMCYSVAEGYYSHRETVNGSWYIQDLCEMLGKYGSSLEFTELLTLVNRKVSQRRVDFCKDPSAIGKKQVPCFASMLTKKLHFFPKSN
Kind of assay: Inhibition of Caspase-6 (unknown origin).

Assay [4] deals with T1, Replicase polyprotein 1ab. Kind of assay: Inhibition of N-terminal His6-tagged recombinant full length SARS-CoV-2 3CLpro expressed in Escherichia coli BL21(DE3) assessed as inhibition constant using MCA-AVLQSGFR-Lys(Dnp)-Lys-NH2 as fluorogenic substrate incubated for 3 hrs by FRET assay.
A further assay has as its target Cathepsin B (Homo sapiens, UniProt P07858). Description: Inhibition of Cathepsin B (unknown origin) using Z-RR-AMC as fluorogenic substrate preincubated for 10 mins followed by substrate addition and measured for 10 mins by fluorescence based assay.
A further assay concerns the target Chymotrypsin (Homo sapiens, UniProt Q99895+P17538+P40313+Q6GPI1). Description: Inhibition of Chymotrypsin (unknown origin) using N-succinyl-AAPF-AMC as fluorogenic substrate preincubated for 10 mins followed by substrate addition and measured for 10 mins by fluorescence based assay. It is filed as protein assay.
In assay [5] the target is T1, Replicase polyprotein 1ab. Kind of assay: Inhibition of SARS-CoV-2 PLpro using RLRGG-AMC as fluorogenic substrate preincubated with compound for 30 mins followed by substrate addition by fluorescence based microplate reader assay.
A further assay has as its system SARS-CoV-2. Kind of assay: microbe, parasite or virus in culture. The note with it: Severe acute respiratory syndrome coronavirus 2, B1.617.2 (Delta), Vero C1008, 24 h.
Assay [6] concerns the target T3, Procathepsin L. Description: Inhibition of Cathepsin L (unknown origin) using Z-VVR-AMC as fluorogenic substrate at 20 uM preincubated for 10 mins followed by substrate addition and measured for 10 mins by fluorescence based assay. To be noted: time 20.0 min.
Target sequence in this assay (P07711 114-333 limits assumed): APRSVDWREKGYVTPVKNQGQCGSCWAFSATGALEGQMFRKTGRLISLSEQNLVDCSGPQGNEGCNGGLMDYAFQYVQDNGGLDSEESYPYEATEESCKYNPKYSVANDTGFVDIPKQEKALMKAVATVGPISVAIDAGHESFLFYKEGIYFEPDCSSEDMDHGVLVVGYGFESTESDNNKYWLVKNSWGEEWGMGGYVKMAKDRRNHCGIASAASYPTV

A value given as a limit tells only on which side of the number the result lay.

For `COc1ccc2c(c1)N(C(=O)CSC#N)c1ccccc1S2`, the IC50 in assay [1] came out at 2900 nM.
For the compound `N#CSCC(=O)N1c2ccccc2Sc2ccc(C#N)cc21`, the IC50 on Cathepsin G was > 50 µM; against Procathepsin L [3], > 100 µM; on Caspase-6 it was > 50 µM; in assay [1], 322 nM; against Cathepsin B, > 50 µM; against Chymotrypsin, > 100 µM. In addition, the half-inhibitory concentration (IC50) in [5] was > 100 µM. For the same compound, the Kobs in assay [2] was 1670 M⁻¹ s⁻¹. Also, the Ki in assay [4] came out at 18.1 µM.
For the compound `N#CSCC(=O)N1c2ccccc2Oc2ccccc21`, the concentration for half-maximal inhibition (IC50) in [1] came out at 3960 nM. In the assay on SARS-CoV-2, a half-maximal effect (EC50) was put at 5.38 µM.
Consider `N#CSCC(=O)N1c2ccccc2Sc2ccc(Cl)cc21`, for which, in assay [1], the IC50 turned out to be 524 nM.
Turning to `CCSc1ccc2c(c1)N(C(=O)CSC#N)c1ccccc1S2`, the half-maximal inhibitory concentration (IC50) in assay [1] came to 2640 nM.
Turning to `N#CSCC(=O)N1c2ccccc2Sc2ccc(C(F)(F)F)cc21`, the IC50 in assay [1] was 4600 nM. This compound also displayed an EC50 in the assay with SARS-CoV-2 of 3.14 µM.
`N#CSCC(=O)N1c2ccccc2Sc2ccccc21`: the IC50 in [1] was 1850 nM.
Consider `N#CSCC(=O)N1c2ccccc2CCc2ccc(Cl)cc21`, for which, in assay [1], the concentration for half-maximal inhibition (IC50) is 478 nM. For the same compound, the EC50 in the assay on SARS-CoV-2 was 2.5 µM. In addition, the inhibitory constant (Ki) in assay [4] was 24.9 µM.
For `CCC(=O)c1ccc2c(c1)N(C(=O)CSC#N)c1ccccc1S2`, in assay [1], the IC50 is 3330 nM.
`N#CSCC(=O)N1c2ccccc2CCc2ccccc21`: the IC50 against Cathepsin G was > 50 µM; on Caspase-6 it was > 50 µM; in assay [1], 2210 nM; on Cathepsin B, > 50 µM; on Chymotrypsin, > 100 µM; in assay [5] it was > 100 µM. Moreover, the Kobs in [2] came out at 327 M⁻¹ s⁻¹. For the same compound, the inhibition on Procathepsin L [6] amounted to 70.3%. For the same compound, the Ki in assay [4] stood at 43.6 µM.
In the case of `CC(=O)c1ccc2c(c1)N(C(=O)CSC#N)c1ccccc1S2`, the IC50 in assay [1] came to 1060 nM.
